These results are taken from the OligoGym collection.

HELM strings list units from the 5' end as sugar, base in round brackets, then linkage (d deoxyribose, r ribose, m 2'-O-methyl, p phosphodiester). Strings are as the collection lists them; they lack the last nucleoside at the 3' end of the tested compound. [moe] = 2'-O-(2-methoxyethyl) (MOE); [sp] = phosphorothioate linkage; [m5C] = 5-methylcytosine

The series deals with SCN2A. Nature of the series: mouse, dose not given. Particulars: ASO.
For the substance “RNA1{[moe]([m5C])[sp].[moe](T)p.[moe](G)p.[moe]([m5C])p.[moe](A)[sp].d(T)[sp].d(G)[sp].d(T)[sp].d(A)[sp].d(A)[sp].d([m5C])[sp].d([m5C])[sp].d(T)[sp].[moe](T)p.[moe](T)p.[moe](A)[sp].[moe](T)}$$$$ (last 3' nucleoside missing)”, the 3 h FOB score came to 0.5 score 0-7.

“RNA1{[moe]([m5C])[sp].[moe](T)p.[moe](G)p.[moe]([m5C])p.[moe](A)p.[moe](T)[sp].d(G)[sp].d(T)[sp].d(A)[sp].d(A)[sp].d([m5C])[sp].d([m5C])[sp].d(T)[sp].d(T)[sp].[moe](T)p.[moe](A)[sp].[moe](T)}$$$$ (last 3' nucleoside missing)” displayed a 3 h FOB score of 0 score 0-7. Next, “RNA1{[moe]([m5C])[sp].[moe](T)p.[moe](G)p.[moe]([m5C])p.[moe](A)p.[moe](T)p.d(G)[sp].d(T)[sp].d(A)[sp].d(A)[sp].d([m5C])[sp].d([m5C])[sp].d(T)[sp].d(T)[sp].d(T)[sp].d(A)[sp].[moe](T)p.[moe](A)[sp].[moe]([m5C])}$$$$ (last 3' nucleoside missing)”: 0 score 0-7; “RNA1{[moe]([m5C])[sp].[moe](T)p.[moe](G)p.[moe]([m5C])p.[moe](A)p.d(T)[sp].d(G)[sp].d(T)[sp].d(A)[sp].d(A)[sp].d([m5C])[sp].d([m5C])[sp].d(T)[sp].d(T)[sp].d(T)[sp].[moe](A)p.[moe](T)p.[moe](A)[sp].[moe]([m5C])}$$$$ (last 3' nucleoside missing)”: 0 score 0-7; “RNA1{[moe]([m5C])[sp].[moe](T)p.[moe](G)p.[moe]([m5C])p.d(A)[sp].d(T)[sp].d(G)[sp].d(T)[sp].d(A)[sp].d(A)[sp].d([m5C])[sp].d([m5C])[sp].d(T)[sp].d(T)[sp].[moe](T)p.[moe](A)p.[moe](T)p.[moe](A)[sp].[moe]([m5C])}$$$$ (last 3' nucleoside missing)”: 0 score 0-7. For the substance “RNA1{[moe]([m5C])[sp].[moe](T)p.[moe]([m5C])p.[moe](T)p.[moe](T)p.[moe](T)p.d([m5C])[sp].d(T)[sp].d(T)[sp].d(A)[sp].d(T)[sp].d(T)[sp].d(T)[sp].d([m5C])[sp].d(T)[sp].d(G)[sp].[moe](T)p.[moe](T)[sp].[moe](T)}$$$$ (last 3' nucleoside missing)”, the 3 h FOB score was 1 score 0-7. Under “RNA1{[moe]([m5C])[sp].[moe](T)p.[moe]([m5C])p.[moe](T)p.[moe](T)p.d(T)[sp].d([m5C])[sp].d(T)[sp].d(T)[sp].d(A)[sp].d(T)[sp].d(T)[sp].d(T)[sp].d([m5C])[sp].d(T)[sp].[moe](G)p.[moe](T)p.[moe](T)[sp].[moe](T)}$$$$ (last 3' nucleoside missing)” stands 0 score 0-7; under “RNA1{[moe]([m5C])[sp].[moe](T)p.[moe]([m5C])p.[moe](T)p.d(T)[sp].d(T)[sp].d([m5C])[sp].d(T)[sp].d(T)[sp].d(A)[sp].d(T)[sp].d(T)[sp].d(T)[sp].d([m5C])[sp].[moe](T)p.[moe](G)p.[moe](T)p.[moe](T)[sp].[moe](T)}$$$$ (last 3' nucleoside missing)”, 0 score 0-7.

Turning to “RNA1{[moe]([m5C])[sp].[moe]([m5C])p.[moe](A)p.[moe](G)p.[moe](T)p.d(T)[sp].d(T)[sp].d(T)[sp].d(T)[sp].d(T)[sp].d([m5C])[sp].d(A)[sp].d(T)[sp].d(T)[sp].d(G)[sp].[moe]([m5C])p.[moe](A)p.[moe](T)[sp].[moe]([m5C])}$$$$ (last 3' nucleoside missing)”, the 3 h FOB score is 1.33 score 0-7.

In the case of “RNA1{[moe]([m5C])[sp].[moe]([m5C])p.[moe](A)p.[moe](G)p.d(T)[sp].d(T)[sp].d(T)[sp].d(T)[sp].d(T)[sp].d(T)[sp].d([m5C])[sp].d(A)[sp].d(T)[sp].d(T)[sp].[moe](G)p.[moe]([m5C])p.[moe](A)p.[moe](T)[sp].[moe]([m5C])}$$$$ (last 3' nucleoside missing)”, the 3 h FOB score turned out to be 0 score 0-7. Next, “RNA1{[moe]([m5C])[sp].[moe]([m5C])p.[moe](A)p.[moe](T)p.[moe](T)p.[moe](T)p.d([m5C])[sp].d(T)[sp].d(A)[sp].d(T)[sp].d(A)[sp].d(A)[sp].d([m5C])[sp].d(T)[sp].d([m5C])[sp].d(A)[sp].[moe](G)p.[moe]([m5C])[sp].[moe](A)}$$$$ (last 3' nucleoside missing)”: 0 score 0-7; “RNA1{[moe]([m5C])[sp].[moe]([m5C])p.[moe](A)p.[moe](T)p.[moe](T)p.d(T)[sp].d([m5C])[sp].d(T)[sp].d(A)[sp].d(T)[sp].d(A)[sp].d(A)[sp].d([m5C])[sp].d(T)[sp].d([m5C])[sp].[moe](A)p.[moe](G)p.[moe]([m5C])[sp].[moe](A)}$$$$ (last 3' nucleoside missing)”: 0 score 0-7. The substance “RNA1{[moe]([m5C])[sp].[moe]([m5C])p.[moe](A)p.[moe](T)p.d(T)[sp].d(T)[sp].d([m5C])[sp].d(T)[sp].d(A)[sp].d(T)[sp].d(A)[sp].d(A)[sp].d([m5C])[sp].d(T)[sp].[moe]([m5C])p.[moe](A)p.[moe](G)p.[moe]([m5C])[sp].[moe](A)}$$$$ (last 3' nucleoside missing)” displayed a 3 h FOB score of 0 score 0-7.

Take “RNA1{[moe]([m5C])[sp].[moe]([m5C])p.[moe](A)p.[moe]([m5C])p.[moe](G)p.[moe](A)p.d([m5C])[sp].d(A)[sp].d(T)[sp].d(A)[sp].d(T)[sp].d(T)[sp].d(T)[sp].d(T)[sp].d(T)[sp].d([m5C])[sp].[moe](T)p.[moe](A)[sp].[moe]([m5C])}$$$$ (last 3' nucleoside missing)”: the 3 h FOB score is 0 score 0-7. Next, “RNA1{[moe]([m5C])[sp].[moe]([m5C])p.[moe](A)p.[moe]([m5C])p.[moe](G)p.[moe]([m5C])p.d(T)[sp].d(T)[sp].d(A)[sp].d([m5C])[sp].d(A)[sp].d(T)[sp].d([m5C])[sp].d(A)[sp].d(A)[sp].d(A)[sp].[moe]([m5C])p.[moe](A)[sp].[moe](T)}$$$$ (last 3' nucleoside missing)”: 0 score 0-7; “RNA1{[moe]([m5C])[sp].[moe]([m5C])p.[moe](A)p.[moe]([m5C])p.[moe](G)p.d(A)[sp].d([m5C])[sp].d(A)[sp].d(T)[sp].d(A)[sp].d(T)[sp].d(T)[sp].d(T)[sp].d(T)[sp].d(T)[sp].[moe]([m5C])p.[moe](T)p.[moe](A)[sp].[moe]([m5C])}$$$$ (last 3' nucleoside missing)”: 0 score 0-7; “RNA1{[moe]([m5C])[sp].[moe]([m5C])p.[moe](A)p.[moe]([m5C])p.[moe](G)p.d([m5C])[sp].d(T)[sp].d(T)[sp].d(A)[sp].d([m5C])[sp].d(A)[sp].d(T)[sp].d([m5C])[sp].d(A)[sp].d(A)[sp].[moe](A)p.[moe]([m5C])p.[moe](A)[sp].[moe](T)}$$$$ (last 3' nucleoside missing)”: 0 score 0-7. Next, “RNA1{[moe]([m5C])[sp].[moe]([m5C])p.[moe](A)p.[moe]([m5C])p.d(G)[sp].d(A)[sp].d([m5C])[sp].d(A)[sp].d(T)[sp].d(A)[sp].d(T)[sp].d(T)[sp].d(T)[sp].d(T)[sp].[moe](T)p.[moe]([m5C])p.[moe](T)p.[moe](A)[sp].[moe]([m5C])}$$$$ (last 3' nucleoside missing)”: 1 score 0-7.
